Measured values taken from EP4711366A1, “PYRIMIDO MACROHETEROCYCLIC COMPOUND AS WEE1-YES DUAL-TARGET INHIBITOR AND USE THEREOF” (Mindrank AI Ltd., priority 2023, dated 2024).

Key:
[1] = test system: A427 cells; test: Tumor cell proliferation inhibitory activity assay (CCK-8); format: cell-based, Human; details: for IC50: Homo sapiens, A-427, 72 h compound incubation, CCK-8
Experimental: Human lung cancer A427 cells are cancer cells reported to be sensitive to wee1 inhibitors. In this assay, the anti-cancer effects of the compounds of the present disclosure were verified by assessing the activity of the test substances in inhibiting A427 cell proliferation.
A427 cells were cultured according to the cell culture instructions, and cells in the logarithmic growth phase were collected, counted, resuspended in a complete culture medium, and inoculated into a 96-well plate at a cell concentration of 100 µL/3000 cells/well. The cells were incubated in an incubator at 37 °C with 100% relative humidity and 5% CO2 for 24 h.
The compounds to be tested were dissolved in DMSO and diluted 4-fold with a culture medium from 10 µM to 10 concentration gradients.
The culture medium waste was pipetted off, and 100 µL of the formulated culture medium of the compound to be tested was added to each well. The cells were incubated in an incubator at 37 °C with 100% relative humidity and 5% CO2 for 72 h.
The plate was taken out, the CCK-8 reagent was added at 10 µL/well, and the plate was incubated in an incubator at 37 °C for 2-4 h.
The cell growth inhibition rates of the drugs were calculated using the following formula: Cell growth inhibition rate% = [(Ac−As)/(Ac−Ab)] × 100% [formula] • As: the OA of the samples (cells + CCK-8 + compounds to be tested) • Ac: the OA of the normal growth cell control (cells + CCK-8) • Ab: the OA of the blank control (culture medium + CCK-8)
IC50 curve fitting was performed using the software Graphpad Prism 6 and the calculation formula XY-analysis/Nonlinear regression(curve fit)/Dose response-Inhibition/log(inhibitor)vs. response-Variable slope(four parameters), and the IC50 values were calculated. Table 1. Data analysis and results for some representative compounds

[2] = test system: SW620 human colon cancer cells; test: In vivo efficacy study against SW620 tumors (subcutaneous tumor-bearing model); parameters: species or system BALB/c nude mice; details: for Relative tumor inhibition rate (%) Day 21 / Relative tumor volume Day 21: PO, QD×21
Excerpt: (§1) SW620 human colon cancer cells were subcultured and expanded in an L-15 culture medium containing 10% FBS. BALB/c nude mice aged 6-8 weeks were taken and each subcutaneously injected with 1 × 10^6 cells to establish a tumor-bearing model. The tumor volume was monitored, and when the tumor volume reached about 150 mm^3, the animals were randomized into 5 groups according to body weight and tumor volume. The animals were given, by oral gavage, the vehicle or compounds to be tested (ZN-c3 and compound IE) once daily for a total of 21 days. During the period of administration, the tumor volume and the animal body weight were measured twice a week, and the animals' states were observed daily. At the endpoint, the animals were euthanized with carbon dioxide, and the subcutaneous tumors were isolated and weighed.
(§2) The data calculation formulae are shown below: The tumor volume (TV) was calculated using the formula 1/2×axb^2, where a and b represent the length and width measurements of the tumor, respectively.
(§3) The tumor growth inhibition rate (%TGITV) was calculated using the formula (1 - TVT/TVC) × 100%, where TVc represents the average tumor volume of the negative control group, and TVT represents the average tumor volume of the treatment group.
(§4) The relative tumor volume (RTV) was calculated using the formula Vt/V0, where V0 represents the tumor volume at the time of grouping, and Vt represents the tumor volume at each measurement.

[3] = test system: Human colon cancer LoVo cells; test: In vivo efficacy study against LoVo tumors (subcutaneous tumor-bearing model); parameters: species or system BALB/c nude mice; details: for Relative tumor inhibition (%) Day 28 / Relative tumor volume Day 28: PO
Excerpt: as §1, with “Human colon” for “SW620 human colon”, “cancer LoVo” for “cancer”, “an F12K” for “an L-15”, “with 2” for “with 1”, “and” for “and compound”, “of 28” for “of 21”
as §2
The tumor growth inhibition rate (%TGITV) was calculated using the formula (1 - TVT/TVC) × 100%, where TVC represents the average tumor volume of the negative control group, and TVT represents the average tumor volume of the treatment group.
as §4

[4] = test system: Human ovarian cancer OVCAR-3 cells; test: In vivo efficacy study against OVCAR-3 tumors (subcutaneous tumor-bearing model); parameters: species or system BALB/c nude mice; details: for Relative tumor inhibition (%) Day 28 / Relative tumor volume Day 28: PO
Experimental: Human ovarian cancer OVCAR-3 cells were subcultured and expanded in an RPMI-1640 culture medium containing 20% FBS and 0.01 mg/mL bovine insulin. BALB/c nude mice aged 6-8 weeks were taken and each subcutaneously injected with 5 × 10^6 cells to establish a tumor-bearing model. The tumor volume was monitored, and when the tumor volume reached about 150 mm^3, the animals were randomized into 5 groups according to body weight and tumor volume. The animals were given, by oral gavage, the vehicle or compounds to be tested (ZN-c3 and IE) once daily for a total of 28 days. During the period of administration, the tumor volume and the animal body weight were measured twice a week, and the animals' states were observed daily. At the endpoint, the animals were euthanized with carbon dioxide, and the subcutaneous tumors were isolated and weighed.
as §2, §3, §4

What does the source list for `Cc1cc(Nc2ncc3c(=O)n4n(c3n2)-c2cccc(n2)[C@](C)(O)CCC=CC4)ccc1OC1CCN(C)CC1` (stereo in doubt) [Compound IE, (R,Z)-12-hydroxy-12-methyl-2-((3-methyl-4-((1-methylpiperidin-4-yl)oxy)phenyl)amino)-7,10,11,12-tetrahydro-5H-13,17-(azeno)pyrimido[4',5':3,4]pyrazolo[1,2-a] [1,2]diazacyclotridecin-5-one]?
IC50 [1]: 0.013 µM; activity in inhibiting cancer cell proliferation compared with reference compound Debio 0123 or ZN-c3 ([1]; comparison in words): several times to several dozen times higher; Relative tumor inhibition rate (%) Day 21 ([2]; 30mg/kg): 38.18%; Relative tumor volume Day 21 ([2]; 30mg/kg): 7.31; Relative tumor inhibition rate (%) Day 21 ([2]; 80mg/kg): 78.38%; Relative tumor volume Day 21 ([2]; 80mg/kg): 2.57; activity in inhibiting tumor growth in the SW620 tumor model compared with ZN-c3 ([2]; comparison in words): higher activity than the reference molecule ZN-c3; Relative tumor inhibition (%) Day 28 ([3]; 20 mg/kg, QD × 28): 60.90%; Relative tumor volume Day 28 ([3]; 20 mg/kg, QD × 28): 2.28; Relative tumor inhibition (%) Day 28 ([3]; 40 mg/kg, QD × 28): 89.12%; Relative tumor volume Day 28 ([3]; 40 mg/kg, QD × 28): 0.63; Relative tumor inhibition (%) Day 28 ([3]; 80mg/kg, QD×28): 97.12%; Relative tumor volume Day 28 ([3]; 80mg/kg, QD×28): 0.17; activity in inhibiting tumor growth in the LoVo tumor model compared with ZN-c3 ([3]; comparison in words): significantly better activity than ZN-c3; Relative tumor inhibition (%) Day 28 ([4]; 20 mg/kg, QD × 28): 40.51%; Relative tumor volume Day 28 ([4]; 20 mg/kg, QD × 28): 3.16; Relative tumor inhibition (%) Day 28 ([4]; 40 mg/kg, QD × 28): 81.11%; Relative tumor volume Day 28 ([4]; 40 mg/kg, QD × 28): 0.94; Relative tumor inhibition (%) Day 28 ([4]; 80/60 mg/kg, QD × 28): 92.69%; Relative tumor volume Day 28 ([4]; 80/60 mg/kg, QD × 28): 0.38; activity in inhibiting tumor growth in the OVCAR-3 tumor model compared with ZN-c3 ([4]; comparison in words): significantly better activity than ZN-c3

Which results are given for `C=CCn1c(=O)c2cnc(Nc3ccc(N4CCN(C)CC4)cc3)nc2n1-c1ccc2c(n1)C(O)(CC)CC2` (stereo not drawn) [ZN-c3, reference compound]?
IC50 [1]: 0.129 µM; Relative tumor inhibition rate (%) Day 21 ([2]; 30mg/kg): 28.24%; Relative tumor volume Day 21 ([2]; 30mg/kg): 8.57; Relative tumor inhibition rate (%) Day 21 ([2]; 80mg/kg): 36.78%; Relative tumor volume Day 21 ([2]; 80mg/kg): 7.94; Relative tumor inhibition (%) Day 28 ([3]; 80mg/kg, QD×28): 57.98%; Relative tumor volume Day 28 ([3]; 80mg/kg, QD×28): 2.41; Relative tumor inhibition (%) Day 28 ([4]; 100mg/kg, QD×28): 61.10%; Relative tumor volume Day 28 ([4]; 100mg/kg, QD×28): 2.01
